Results taken from ChEMBL document CHEMBL5143635, “Synthesis and biological evaluation of artemisinin derivatives as potential MS agents” (Bioorg Med Chem Lett, 2022).
Activity calls are given as the source filed them. No cut-off for these calls is given here.

Key:
[1] = Inhibition of Th17 cells differentiation in C57BL/6 mouse spleen CD4+ve Th cells assessed as decrease in IL-17A production at 10 uM measured after 4 days by flow cytometry analysis; assay type: functional; conditions: C57BL/6, CD4+ve Th, 96 h, time 4 day
CD4+ve Th = assay: Inhibition of Th17 cells differentiation in C57BL/6 mouse spleen CD4+ve Th cells assessed as decrease in IL-17A production at high concentrations measured after 4 days by flow cytometry analysis; assay type: functional, cell-based; conditions: time 4.0 day
[2] = Inhibition of Th17 cells differentiation in C57BL/6 mouse spleen CD4+ve Th cells assessed as decrease in IL-17A production at 10 uM measured after 4 days by flow cytometry analysis (reference value: 23%); assay type: functional; conditions: C57BL/6, CD4+ve Th, 96 h, time 4 day
[3] = Inhibition of Th17 cells differentiation in C57BL/6 mouse spleen CD4+ve Th cells assessed as decrease in IL-17A production at 10 uM measured after 4 days by flow cytometry analysis (reference value: 28%); assay type: functional; conditions: C57BL/6, CD4+ve Th, 96 h, time 4 day
Mus musculus = assay: Immunosuppressive activity in MOG 35-55 residues/pertussis toxin-immunized autoimmune encephalomyelitis C57BL/6 mouse model assessed as suppression of disease progression by measuring clinical cumulative score at 100 mg/kg,po administered daily from day 3 measured for 21 days; assay type: functional, organism-based; conditions: time 21.0 day
[4] = Inhibition of Th1 cells differentiation in C57BL/6 mouse spleen CD4+ve Th cells assessed as decrease in IFNgamma production at 10 uM measured after 4 days by flow cytometry analysis (reference value: 41%); assay type: functional; conditions: C57BL/6, CD4+ve Th, 96 h, time 4 day
[5] = Toxicity in MOG 35-55 residues/pertussis toxin-immunized autoimmune encephalomyelitis C57BL/6 mouse model assessed as change in body weight at 100 mg/kg,po administered daily from day 3 measured for 21 days; assay type: organism-based; conditions: in vivo, 504 h, time 21 day

Row | SMILES | inhibition at 10 µM [1] | inhibition (CD4+ve Th) | also measured
1 | C[C@@H]1CC[C@H]2C(C)(C)[C@@H](OC(=O)Nc3ccc(OC(F)(F)F)cc3)O[C@@H]3O[C@@]4(C)CC[C@@H]1[C@]32OO4 | < 6% | Active | 
2 | C[C@@H]1CC[C@H]2[C@@](C)(F)[C@@H](OC(=O)Nc3ccc(OC(F)(F)F)cc3)O[C@@H]3O[C@@]4(C)CC[C@@H]1[C@]32OO4 | < 6% | Active | 
3 | C[C@H]1[C@@H](S)O[C@@H]2O[C@@]3(C)CC[C@H]4[C@H](C)CC[C@@H]1[C@@]24OO3 |  |  | inhibition at 10 µM [2]: 12%
4 | C[C@H]1[C@@H](SC(=O)CCCC[C@H]2CCSS2)O[C@@H]2O[C@@]3(C)CC[C@H]4[C@H](C)CC[C@@H]1[C@@]24OO3 | < 6% | Active | 
5 | C[C@@H]1CC[C@H]2[C@@](C)(Cl)[C@@H](OC(=O)Nc3ccc(OC(F)(F)F)cc3)O[C@@H]3O[C@@]4(C)CC[C@@H]1[C@]32OO4 | < 6% | Active | 
6 | C[C@H]1[C@@H](SC(=O)Nc2ccc(OC(F)(F)F)cc2)O[C@@H]2O[C@@]3(C)CC[C@H]4[C@H](C)CC[C@@H]1[C@@]24OO3 | < 6% | Active | 
7 | C[C@H]1[C@@H](OC(=O)CCCC[C@H]2CCSS2)O[C@@H]2O[C@@]3(C)CC[C@H]4[C@H](C)CC[C@@H]1[C@@]24OO3 |  |  | inhibition at 10 µM [3]: 8%; Activity (Mus musculus): Active; inhibition at 10 µM [4]: 3%; Activity [5]: Toxic
